{"source": "patent US20030040506A1", "about": "(priority 2002, published 2003)", "assay": "Acid stability (acid-mediated hydrolytic decomposition, simulated stomach conditions)", "format": "physicochemical", "settings": "pH 1, 25° C.; for Compound left (%): 0.3 mg/mL in dilute hydrochloric acid, HPLC", "experimental": "Compounds were tested for their stability towards acid-mediated hydrolytic decomposition employing a test designed to simulate stomach conditions. Each compound was incubated at an initial concentration of 0.3 mg/mL in dilute hydrochloric acid at pH 1 for 24 hours at 25° C. HPLC was run immediately for t=0 and at intervals up to approximately 24 hours. The results for compounds of Example 2, part b, Example 9, and for comparative phosphoramidates of 2′,3′-dideoxy-adenosine (Compound 1093) and 2′,3′-didehydro-2′,3′-dideoxy-adenosine (Compound 1001), described in PCT/GB96/00580, are given in the table below."}
{"smiles": "COC(=O)C(C)(C)NP(=O)(OC[C@@H]1C=C[C@H](n2cnc3c(NCC4CC4)nc(N)nc32)C1)Oc1ccccc1", "note": "(relative stereo) [Example 9]", "values": [{"measurement": "Compound left (%)", "setting": "Time 0 hr", "value": 100, "unit": "%"}, {"measurement": "Compound left (%)", "setting": "Time 13 hr", "value": 96, "unit": "%"}, {"measurement": "Compound left (%)", "setting": "Time 24 hr", "value": 94, "unit": "%"}, {"measurement": "Acid stability in words", "setting": "after 24 hours, dilute hydrochloric acid", "value": "remained intact"}]}
